“And” between values parts separate entries of the source, which are not always exact repeats. Equal entries are not always repeated. “Also recorded” adds a separate entry of the source. Where two headings read alike, the source gives them in different places. One block for each compound: values may come before it.
Columns and labels:
HT-29 colon cancer cells [1] = assay: HT-29 colony formation in soft agarose; assay type: cell-based, human; conditions: for IC50: HT-29 colonies in soft agarose, 7 days exposure, mean of 3 determinations ± S.E.
bovine PI-PLC = assay: In vitro inhibition of bovine PI-PLC; assay type: biochemical
PI-3kinase = conditions: previously found; cited from earlier work
human Akt = human Akt (Homo sapiens, UniProt P31749); assay: Inhibition of PDGF-stimulated Akt activation in transfected NIH 3T3 cells; assay type: cell-based; conditions: 6 hours exposure, listed as D-3-deoxy-PtdIns
Chain of human Akt (P31749 whole entry): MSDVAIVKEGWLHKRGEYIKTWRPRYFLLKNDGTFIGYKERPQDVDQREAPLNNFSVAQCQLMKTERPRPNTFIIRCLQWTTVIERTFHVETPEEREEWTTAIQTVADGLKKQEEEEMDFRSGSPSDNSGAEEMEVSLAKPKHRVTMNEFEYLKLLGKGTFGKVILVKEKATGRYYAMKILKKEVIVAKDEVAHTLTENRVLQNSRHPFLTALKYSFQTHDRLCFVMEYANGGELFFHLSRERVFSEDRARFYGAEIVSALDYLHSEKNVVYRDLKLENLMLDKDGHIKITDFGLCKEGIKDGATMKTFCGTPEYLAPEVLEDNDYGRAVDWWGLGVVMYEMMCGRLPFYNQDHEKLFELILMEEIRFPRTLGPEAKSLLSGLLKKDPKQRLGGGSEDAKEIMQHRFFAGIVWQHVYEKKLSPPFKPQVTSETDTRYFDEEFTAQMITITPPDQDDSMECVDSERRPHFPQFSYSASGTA

[2] = tested on: MCF-7 human breast cancer xenografts; assay: in vivo; assay type: in vivo; conditions: for T/C: p<0.05
Text: (§1) Also, the relative ability of D-3-deoxy-PtdIns and OMDPI, when administered i.p. as a daily micellar suspension to inhibit the growth of MCF-7 human breast cancer xenografts in SCID mice, was further evaluated. […] […]. These were the maximum tolerated doses that could be given by these schedules. […].

[3] = Preliminary toxicology in BALB/C mice; assay type: in vivo, male BALB/C mice; conditions: for Weight Change %: killed 24 hr after last dose
Method: In order to evaluate clinical safety, toxicity tests were conducted by administering DPI or OMDPI to groups of 4 male BALB/C mice daily by i.p. injection for 5 days at the maximum tolerated dose. […] Moreover, there was a 33% decrease in total white blood cell count. It should be noted, however, that this is not sufficient for a cytotoxic drug to be considered myelosuppresive.
As discussed, Table 4 contains the toxicity results obtained with groups of 4 male BALB/C mice, which were administered the compounds daily by i.p. injection for 5 days at the doses shown and killed 24 hr after the last dose. Values are mean±S.E. The p values are shown only where there was a significant difference to control.

HT-29 colon cancer cells [4] = conditions: as reported earlier (J. Med. Chem. 1995; U.S. Pat. No. 5,227,508); read-out: IC50 for inhibition of colony formation by HT-29 human colon carcinoma cells; cited from earlier work
HT-29 human colon cancer = assay: Anti-tumor activity against established HT-29 human colon cancer in SCID mice; conditions: for T/C % / Tumor volume on day 10: qd 4-7; for Tumor volume on day 10: mean of 8 mice with S.E.
[5] = biological target: T1, bovine brain p110/p85 PI-3-kinase (Bos taurus, UniProt P32871); assay: In vitro inhibition of bovine brain p110/p85 PI-3-kinase; assay type: biochemical
T1 construct: from tissue; host or cells: bovine brain
T1 sequence (P32871 whole entry): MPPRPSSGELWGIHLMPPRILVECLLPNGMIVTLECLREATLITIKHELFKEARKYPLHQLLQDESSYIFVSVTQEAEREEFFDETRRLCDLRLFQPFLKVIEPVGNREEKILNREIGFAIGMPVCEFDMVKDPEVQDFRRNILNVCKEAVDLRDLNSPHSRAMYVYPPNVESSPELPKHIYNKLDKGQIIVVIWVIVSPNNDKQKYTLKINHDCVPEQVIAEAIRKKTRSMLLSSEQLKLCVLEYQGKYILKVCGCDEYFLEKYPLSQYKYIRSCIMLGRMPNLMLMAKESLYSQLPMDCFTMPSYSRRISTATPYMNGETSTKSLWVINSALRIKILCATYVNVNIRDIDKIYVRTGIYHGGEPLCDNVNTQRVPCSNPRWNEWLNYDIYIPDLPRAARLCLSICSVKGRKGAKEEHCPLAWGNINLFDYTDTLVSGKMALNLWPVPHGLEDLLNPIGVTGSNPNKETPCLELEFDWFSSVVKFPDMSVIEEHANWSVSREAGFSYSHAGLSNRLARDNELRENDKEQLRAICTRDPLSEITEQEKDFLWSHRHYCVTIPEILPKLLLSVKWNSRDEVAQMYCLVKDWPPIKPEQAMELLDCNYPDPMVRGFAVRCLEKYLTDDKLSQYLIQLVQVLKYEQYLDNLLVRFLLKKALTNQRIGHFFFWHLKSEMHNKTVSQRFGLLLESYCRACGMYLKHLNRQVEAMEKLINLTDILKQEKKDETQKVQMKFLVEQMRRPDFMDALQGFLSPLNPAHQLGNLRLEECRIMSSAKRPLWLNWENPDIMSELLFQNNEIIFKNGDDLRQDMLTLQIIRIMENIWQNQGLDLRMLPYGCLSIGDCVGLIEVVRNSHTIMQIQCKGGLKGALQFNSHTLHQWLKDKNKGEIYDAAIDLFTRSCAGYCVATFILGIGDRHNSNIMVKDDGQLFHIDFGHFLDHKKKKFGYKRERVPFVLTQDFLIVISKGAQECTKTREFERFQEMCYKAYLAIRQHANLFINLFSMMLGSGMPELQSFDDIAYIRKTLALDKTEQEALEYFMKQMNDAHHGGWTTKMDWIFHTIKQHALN
T1 sequence (P23727 whole entry partner): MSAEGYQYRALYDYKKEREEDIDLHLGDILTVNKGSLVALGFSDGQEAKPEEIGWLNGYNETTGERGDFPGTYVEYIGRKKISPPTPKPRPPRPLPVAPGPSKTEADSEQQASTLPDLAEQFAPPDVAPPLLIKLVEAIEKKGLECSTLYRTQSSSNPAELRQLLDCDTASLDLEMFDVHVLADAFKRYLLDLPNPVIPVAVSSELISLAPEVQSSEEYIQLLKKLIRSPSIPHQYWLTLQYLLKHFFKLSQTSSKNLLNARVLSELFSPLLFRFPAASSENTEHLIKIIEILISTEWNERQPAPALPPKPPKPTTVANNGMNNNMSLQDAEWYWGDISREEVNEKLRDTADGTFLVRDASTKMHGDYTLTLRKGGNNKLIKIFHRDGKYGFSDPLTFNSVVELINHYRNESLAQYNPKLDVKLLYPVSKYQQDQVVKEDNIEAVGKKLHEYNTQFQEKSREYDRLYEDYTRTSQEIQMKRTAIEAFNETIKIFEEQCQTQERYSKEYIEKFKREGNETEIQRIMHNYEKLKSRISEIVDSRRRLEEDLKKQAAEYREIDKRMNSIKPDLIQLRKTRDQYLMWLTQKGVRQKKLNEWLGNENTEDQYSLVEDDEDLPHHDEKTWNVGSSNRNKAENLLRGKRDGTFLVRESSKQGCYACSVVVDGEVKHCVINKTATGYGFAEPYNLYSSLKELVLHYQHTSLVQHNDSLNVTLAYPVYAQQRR
Text: Schultz et al.; Anticancer Res., 15:1135-1140 (1995)).

in vivo = assay type: in vivo; conditions: SCID, mouse, in vivo, ip, read-out: maximum tolerated dose
Text: as §1

Aqueous solubility = assay type: physicochemical; conditions: aqueous with cosolvent or surfactant or cyclodextrin; in 0.1% Tween 20, opalescent solution
Text: Therefore, OMDPI should be readily formulated for intravenous use, should this be determined to be the optimal route for clinical administration.

[6] = administered orally as well as parenterally; cited from earlier work
[7] = 300 mg/kg i.p. daily for 5 days
[8] = 100 mg/kg i.p. daily for 5 days
[9] = 100 mg/kg i.p. daily for 5 days, listed as OMDPI
[10] = 100 mg/kg i.p. daily for 5 days, listed as deoxy-PtdIns Ether Lipid
[11] = maximum tolerated dose i.p. daily for 5 days

Compound: 2,3-dideoxy-PtdIns
IC50 (HT-29 colon cancer cells [1]): 50 ± 7 µM

Compound: 3-chloro-3-deoxy-PtdIns [reference compound]
growth inhibition at maximum tested concentration (HT-29 colon cancer cells [1]; HT-29 colony formation): < 20%

PI-PLC IC50 (bovine PI-PLC; same assay conditions as Table 2): poor inhibitor
Compound: CCCCCCCCCCCCCCCCCCOC[C@H](COP(=O)(O)OC1C(O)C(O)C(O)C(O)C1O)OC (some centres unmarked) [1-O-octadecyl-2-O-methyl-sn-glycero-3-phospho-myo-inositol]
inhibition of cancer cell growth (HT-29 colon cancer cells [1]; in words): only a weak inhibitor | IC50 (PI-3kinase): 90 µM

Compound: CCCCCCCCCCCCCCCC(=O)OCC(COP(=O)(O)OC1C(O)CC(O)C(O)C1O)OC(=O)CCCCCCCCCCCCCCC (centres unmarked) [(30), 3-deoxy-phosphatidyl-myo-inositol, reference compound]
IC50 (HT-29 colon cancer cells [1]): 35 µM | Akt activation (human Akt): blocks the activation of Akt; also recorded: blocked Akt activation | PtdIns-PLC IC50 (bovine PI-PLC): N/A (N/A = not active, with <20% inhibition at 100 gM.) | T/C ([2]; i.p. daily micellar suspension, dose not given): 62% | ALT [3, 7]: 30.5 | BUN [3, 7]: 15.7 | Platelets × 10^6 [3, 7]: 0.9 × 10^6 | Total Protein [3, 7]: 4.6 | White blood cells [3, 7]: 7.9 | Weight Change % [3, 7]: −4.3 ± 1.9% | IC50 (HT-29 colon cancer cells [4]): 35 µM | T/C % (HT-29 human colon cancer; 250 mg/kg i.p.): 111.1% | Tumor volume on day 10 (HT-29 human colon cancer; 250 mg/kg i.p.): 0.30 ± 0.06 cm^3 | lethality (HT-29 human colon cancer; 500 mg/kg i.p., qd 4-5): lethal | anti-tumor activity (HT-29 human colon cancer; half of 500 mg/kg daily i.p.): no anti-tumor activity

IC50 (HT-29 colon cancer cells [1]): 37 µM
Compound: CCCCCCCCCCCCCCCC(=O)OCC(COP(=O)(O)OC1C(O)C(O)C(O)C(F)C1O)OC(=O)CCCCCCCCCCCCCCC (centres unmarked) [(35), 3-Fluoro-3-deoxy-PtdIns, reference compound]
IC50 (HT-29 colon cancer cells [4]): 37 µM

IC50 (HT-29 colon cancer cells [1]; Homo sapiens, 168 h): 10 µM
Compound: CCCCCCCCCCCCCCCC(=O)OCC(CCP(=O)(O)OC1C(O)CC(O)C(O)C1O)OC(=O)CCCCCCCCCCCCCCC [(50), 1-O-[(3S)-3,4-bis(palmitoyloxy)butylphosphonyl]-1D-3-deoxy-myo-inositol]
fold increase in growth inhibitory activity compared to DPI (HT-29 colon cancer cells [1]; HT-29 colony formation, versus (30)): > 3 fold and ~3 fold | PtdIns-PLC IC50 (bovine PI-PLC): N/A (N/A = not active, with <20% inhibition at 100 gM.) | PI-3-K IC50 [5]: N/A (N/A = not active, with <20% inhibition at 100 gM.)

Compound: CCCCCCCCCCCCCCCCCCOCC(COP(=O)(O)OC1C(O)CC(O)C(O)C1O)OC (centres unmarked) [(60), 1-O-(2-O-methyl-1-O-octadecyl-sn-glycero-3-phospho)-1D-3-deoxy-myo-inositol]
IC50 (HT-29 colon cancer cells [1]; listed as OMDPI (60)): 2.1 ± 0.1 µM | IC50 (HT-29 colon cancer cells [1]; Homo sapiens, HT-29, 168 h): 2 µM | MTD at 5 days (in vivo; daily i.p. for 5 days): 100 mg/kg | MTD at 10 days (in vivo; daily i.p. for 10 days): 75 mg/kg | T/C ([2]; 75 mg/kg i.p. for 10 days): 20% | T/C ([2]; 100 mg/kg i.p. for 5 days): 39% | inhibition of the growth of MCF-7 breast cancer ([2]; 4 or 5 day daily i.p. schedule): 60% | inhibition of the growth of MCF-7 breast cancer xenografts ([2]; 10 day schedule): 80% | ALT [3, 8]: 32.7 | BUN [3, 8]: 18.7 | Total Protein [3, 8]: 4.9 | White blood cells [3, 8]: 5.8 | Weight Change % [3, 9]: no effect | Weight Change % [3, 10]: +2.3 ± 1.5% | Platelets × 10^6 [3, 9]: no effect | Platelets × 10^6 [3, 10]: 0.9 × 10^6 | liver, renal toxicity ([3]; in words): not liver or renal toxic | myelosuppression ([3]; in words): only weakly myelosuppresive | decrease in total white blood cell count [3, 11]: 33% | serum liver or kidney enzymes [3, 11]: did not result in elevation | solubility (Aqueous solubility): ≥ 10000 µg/mL | T/C % (HT-29 human colon cancer; 50 mg/kg i.p.): 103.7% | Tumor volume on day 10 (HT-29 human colon cancer; 50 mg/kg i.p.): 0.258 ± 0.05 cm^3 | T/C % (HT-29 human colon cancer; 100 mg/kg i.p.): 118.0% | Tumor volume on day 10 (HT-29 human colon cancer; 100 mg/kg i.p.): 0.32 ± 0.09 cm^3 | T/C % (HT-29 human colon cancer; 150 mg/kg i.p.): 33.3% | Tumor volume on day 10 (HT-29 human colon cancer; 150 mg/kg i.p.): 0.09 ± 0.07 cm^3 | toxicity at the highest dose tested (HT-29 human colon cancer; 150 mg/kg per day i.p.): not toxic | inhibition of tumor growth (HT-29 human colon cancer; 150 mg/kg per day, 4 daily i.p. injections): 67% | anti-tumor activity (HT-29 human colon cancer; 100 and 50 mg/kg per day i.p.): did not elicit anti-tumor activity

IC50 (HT-29 colon cancer cells [1]; Homo sapiens, 168 h): 45 µM
Compound: CCCCCCCCCCCCCCCCCCOCC(CCP(=O)(O)OC1C(O)CC(O)C(O)C1O)OC [(90), 1-O-[(3S)-methoxy-4-(octadecyloxy)butylphosphonyl]-1D-3-deoxy-myo-inositol]

Compound: O=P1(N(CCCl)CCCl)NCCCO1 (centres unmarked) [cyclophosphamide, reference compound]
inhibition of the growth of MCF-7 xenografts ([2]; 265 mg/kg on day 5, positive control): 43%

Compound: CCCCCCCCCCCCCCCCOP(=O)([O-])OCC[N+](C)(C)C [mitelfosine, hexadecylphosphocholine]
clinical anti-tumor activity [6]: have shown clinical anti-tumor activity

Source: patent publication US6667340B1, “Inhibitors of phosphatidyl myo-inositol cycle” (Arizona Board of Regents on behalf of the University of …, priority 1998, dated 2003)
